# From patent US12371676B2, “Circularly permutated haloalkane transferase fusion molecules” (MAX-PLANCK-GESELLSCHAFT ZUR FÖRDERUNG DER WISSENSCHAFTEN E. …, priority 2019, dated 2025)
# Assays:
# [1] = FKBP/FRB model system, FP labelling kinetics with or without rapamycin; assay type: biochemical; details: in combination with a FKPB/FRB sensor system; versus PEP1
# Procedure: FIG. 13 Model system to test split HaloTag™ performance: Left: Scheme explaining the FKBP/FRB based model system. cpHaloΔ and the 9mer peptide are fused to FKBP and FRB, respectively, to render the split complementation and activity dependent on their rapamycin dependent interaction. Right: Labelling kinetics of the model system were followed via a fluorescence polarization assay in the presence or absence of rapamycin (Rap). Halo-TMR was used as substrate and each experiment was performed in triplicate.
# FIG. 14 Impact of different flexible linkers in the FKBP/FRB model system: Labelling kinetics of split HaloTag™ fused to FKBP and FRB using different flexible linkers were observed via a fluorescence polarization assay in the presence or absence of rapamycin. Halo-TMR was used as substrate and each experiment was performed in triplicate.
# The inventors further tested the performance of the split-HaloTag system of the invention for labelling protein-protein interactions in a simple model system. They used the strong interaction of the proteins FKBP and FRB, which is conditional on the presence of the small-molecule drug rapamycin. […] Different flexible linkers (1-3 times GGS) were placed between the interacting proteins (FKBP/FRP) and the split HaloTag™ fragments to assess the effect of linker length and to find well performing linker combinations (FIG. 14). […]
# [2] = FP kinetic assay of calcium integrators (split integrator, CaProLa); assay type: biochemical; details: in combination with the calmodulin/M13 sensor system; versus PEP1
# Procedure: FIG. 6 M13—cpHaloΔ9mer and 9mer—CaM linker length optimization: All combinations of split integrators composed of M13—(GGS)1-3—cpHaloΔ9mer and 9mer—(GGS)1-3—CaM were tested in an FP kinetic assay in the presence of calcium or EGTA.
# FIG. 8 Performance of CaProLa constructs with different M13—CaM linkers: FP kinetics of different CaProLa constructs and the split integrator under four conditions: in the presence of calcium (red), in the absence of calcium (purple), in the absence of calcium but spiked with calcium after 1 h (cyan), in the presence of calcium, followed by an EGTA spike to stop the reaction, followed by a calcium spike to restart the reaction (green). Small arrows indicate the EGTA and calcium spikes. Curves in the presence of calcium (red) were fitted to a second order reaction rate equation to determine the rate constants. All experiments were performed in triplicates. GGTGGS: SEQ ID NO 027.
# FIG. 11 Performance of second generation CaProLa constructs: A fluorescence polarization kinetic assays with Halo-TMR of CaProLa 2.1-2.3 were performed under four conditions: in the presence of calcium (red), in the absence of calcium (purple), in the absence of calcium but spiked with calcium after 1 h (cyan), in the presence of calcium, followed by an EGTA spike to stop the reaction, followed by a calcium spike (green). Small arrows indicate the EGTA and calcium spikes. […]
substance,measurement,setting,value
"PEP2: 10mer Peptide 145-ARETFQAFRT-154, second partial effector sequence with extra C-terminal threonine (partial sensor sequence)",effect of the extra threonine on reaction speed,[1],does not have much effect
same,effect of the extra threonine on reaction speed,[2],significant increase in the reaction speed
